Measured values as given in ChEMBL document CHEMBL1275577, “Study of the in vitro activities of rifaximin and comparator agents against 536 anaerobic intestinal bacteria from the perspective of potential utility in pathology involving bowel flora” (Antimicrob Agents Chemother, 2009).

Experiments:
Clostridium leptum = assay: Antimicrobial activity against Clostridium leptum by Wadsworth agar dilution method in presence of beta-lactamase inhibitor Sulbactam; assay type: functional
[1] = Antimicrobial activity against Bifidobacterium infantis by Wadsworth agar dilution method in presence of beta-lactamase inhibitor Sulbactam; assay type: functional, Bifidobacterium longum subsp. infantis; details: Bifidobacterium longum
Ruminococcus lactaris = assay: Antimicrobial activity against Ruminococcus lactaris by Wadsworth agar dilution method in presence of beta-lactamase inhibitor Sulbactam; assay type: functional
Clostridium hathewayi = assay: Antimicrobial activity against Clostridium hathewayi by Wadsworth agar dilution method in presence of beta-lactamase inhibitor Sulbactam; assay type: functional; details: Hungatella hathewayi
[2] = system: Catenibacterium mitsuokai; assay: Antimicrobial activity against Catenibacterium mitsuokai by Wadsworth agar dilution method in presence of beta-lactamase inhibitor Sulbactam; assay type: functional
[3] = system: Pseudoramibacter alactolyticus; assay: Antimicrobial activity against Eubacterium alactolyticum by Wadsworth agar dilution method in presence of beta-lactamase inhibitor Sulbactam; assay type: functional
[4] = system: Bacteroides thetaiotaomicron; assay: Antimicrobial activity against Bacteroides thetaiotaomicron by Wadsworth agar dilution method in presence of beta-lactamase inhibitor Sulbactam; assay type: functional
[5] = system: Clostridium acetobutylicum; assay: Antimicrobial activity against Clostridium acetobutylicum by Wadsworth agar dilution method in presence of beta-lactamase inhibitor Sulbactam; assay type: functional
[6] = system: Lacticaseibacillus rhamnosus; assay: Antimicrobial activity against Lactobacillus rhamnosus by Wadsworth agar dilution method in presence of beta-lactamase inhibitor Sulbactam; assay type: functional
Fusobacterium mortiferum = assay: Antimicrobial activity against Clostridium rectum by Wadsworth agar dilution method in presence of beta-lactamase inhibitor Sulbactam; assay type: functional
Bacteroides caccae = assay: Antimicrobial activity against Bacteroides caccae by Wadsworth agar dilution method in presence of beta-lactamase inhibitor Sulbactam; assay type: functional
[7] = system: Ruminococcus flavefaciens; assay: Antimicrobial activity against Ruminococcus flavefaciens by Wadsworth agar dilution method in presence of beta-lactamase inhibitor Sulbactam; assay type: functional
Fusobacterium sp. = assay: Antimicrobial activity against Fusobacterium sp. by Wadsworth agar dilution method in presence of beta-lactamase inhibitor Sulbactam; assay type: functional
[8] = system: Parabacteroides goldsteinii; assay: Antimicrobial activity against Parabacteroides goldsteinii by Wadsworth agar dilution method in presence of beta-lactamase inhibitor Sulbactam; assay type: functional
[9] = system: Lactobacillus acidophilus; assay: Antimicrobial activity against Lactobacillus acidophilus by Wadsworth agar dilution method in presence of beta-lactamase inhibitor Sulbactam; assay type: functional
[10] = system: Propionibacterium propionicum; assay: Antimicrobial activity against Propionibacterium propionicum by Wadsworth agar dilution method in presence of beta-lactamase inhibitor Sulbactam; assay type: functional; details: Arachnia propionica
Prevotella bivia = assay: Antimicrobial activity against Prevotella bivia by Wadsworth agar dilution method in presence of beta-lactamase inhibitor Sulbactam; assay type: functional
[11] = system: Limosilactobacillus reuteri; assay: Antimicrobial activity against Lactobacillus reuteri by Wadsworth agar dilution method in presence of beta-lactamase inhibitor Sulbactam; assay type: functional
Schaalia meyeri = assay: Antimicrobial activity against Actinomyces meyeri by Wadsworth agar dilution method in presence of beta-lactamase inhibitor Sulbactam; assay type: functional
Eubacterium callanderi = assay: Antimicrobial activity against Eubacterium callanderi by Wadsworth agar dilution method in presence of beta-lactamase inhibitor Sulbactam; assay type: functional
[12] = system: Prevotella melaninogenica; assay: Antimicrobial activity against Prevotella melaninogenica by Wadsworth agar dilution method in presence of beta-lactamase inhibitor Sulbactam; assay type: functional
Clostridium spiroforme = assay: Antimicrobial activity against Clostridium spiroforme by Wadsworth agar dilution method in presence of beta-lactamase inhibitor Sulbactam; assay type: functional; details: Thomasclavelia spiroformis
[13] = system: Desulfovibrio fairfieldensis; assay: Antimicrobial activity against Desulfovibrio fairfieldensis by Wadsworth agar dilution method in presence of beta-lactamase inhibitor Sulbactam; assay type: functional
Desulfovibrio sp. = assay: Antimicrobial activity against Desulfovibrio sp. by Wadsworth agar dilution method in presence of beta-lactamase inhibitor Sulbactam; assay type: functional
Bacteroides ovatus = assay: Antimicrobial activity against Bacteroides ovatus by Wadsworth agar dilution method in presence of beta-lactamase inhibitor Sulbactam; assay type: functional
Bifidobacterium bifidum = assay: Antimicrobial activity against Bifidobacterium bifidum by Wadsworth agar dilution method in presence of beta-lactamase inhibitor Sulbactam; assay type: functional
Peptoniphilus harei = assay: Antimicrobial activity against Peptoniphilus harei by Wadsworth agar dilution method in presence of beta-lactamase inhibitor Sulbactam; assay type: functional
Clostridium butyricum = assay: Antimicrobial activity against Clostridium butyricum by Wadsworth agar dilution method in presence of beta-lactamase inhibitor Sulbactam; assay type: functional
Clostridium tertium = assay: Antimicrobial activity against Clostridium tertium by Wadsworth agar dilution method in presence of beta-lactamase inhibitor Sulbactam; assay type: functional
Cutibacterium acnes = assay: Antimicrobial activity against Propionibacterium acnes by Wadsworth agar dilution method in presence of beta-lactamase inhibitor Sulbactam; assay type: functional
Clostridium cadaveris = assay: Antimicrobial activity against Clostridium cadaveris by Wadsworth agar dilution method in presence of beta-lactamase inhibitor Sulbactam; assay type: functional
[14] = system: Peptoniphilus asaccharolyticus; assay: Antimicrobial activity against Peptoniphilus asaccharolyticus by Wadsworth agar dilution method in presence of beta-lactamase inhibitor Sulbactam; assay type: functional
Eubacterium saburreum = assay: Antimicrobial activity against Eubacterium saburreum by Wadsworth agar dilution method in presence of beta-lactamase inhibitor Sulbactam; assay type: functional; details: Lachnoanaerobaculum saburreum
Eubacterium biforme = assay: Antimicrobial activity against Eubacterium biforme by Wadsworth agar dilution method in presence of beta-lactamase inhibitor Sulbactam; assay type: functional; details: Holdemanella biformis

## CC1(C)S[C@@H]2[C@H](NC(=O)[C@H](N)c3ccccc3)C(=O)N2[C@H]1C(=O)O [AMPICILLIN]
Clostridium leptum
  MIC: 0.25 µg/mL
  MIC50: 0.25 µg/mL
  MIC90: 1 µg/mL
[1]
  MIC: 0.25 µg/mL
  MIC50: 0.25 µg/mL
  MIC90: 2 µg/mL
Ruminococcus lactaris
  MIC: 0.25 µg/mL
  MIC50: 0.25 µg/mL
  MIC90: 2 µg/mL
Clostridium hathewayi
  MIC50: 2 µg/mL
  MIC90: 2 µg/mL
[2]
  MIC: 0.25 µg/mL
  MIC50: 0.25 µg/mL
  MIC90: 2 µg/mL
[3]
  MIC: 0.25 µg/mL
  MIC50: 0.25 µg/mL
  MIC90: 2 µg/mL
[4]
  MIC50: 4 µg/mL
  MIC90: 16 µg/mL
[5]
  MIC: 0.25 µg/mL
  MIC50: 0.25 µg/mL
  MIC90: 1 µg/mL
[6]
  MIC: 0.25 µg/mL
  MIC50: 0.25 µg/mL
  MIC90: 2 µg/mL
Fusobacterium mortiferum
  MIC: 0.25 µg/mL
  MIC50: 0.25 µg/mL
  MIC90: 1 µg/mL
Bacteroides caccae
  MIC50: 16 µg/mL
  MIC90: 32 µg/mL
[7]
  MIC: 0.25 µg/mL
  MIC50: 0.25 µg/mL
  MIC90: 2 µg/mL
Fusobacterium sp.
  MIC50: 1 µg/mL
  MIC90: 4 µg/mL
[8]
  MIC50: 16 µg/mL
  MIC90: 32 µg/mL
[9]
  MIC: 0.25 µg/mL
  MIC50: 0.25 µg/mL
  MIC90: 2 µg/mL
[10]
  MIC: 0.25 µg/mL
  MIC50: 0.25 µg/mL
  MIC90: 2 µg/mL
Prevotella bivia
  MIC50: 0.5 µg/mL
  MIC90: 4 µg/mL
[11]
  MIC: 0.25 µg/mL
  MIC50: 0.25 µg/mL
  MIC90: 2 µg/mL
Schaalia meyeri
  MIC: 0.25 µg/mL
  MIC50: 0.25 µg/mL
  MIC90: 2 µg/mL
Eubacterium callanderi
  MIC: 0.25 µg/mL
  MIC50: 0.25 µg/mL
  MIC90: 2 µg/mL
[12]
  MIC50: 0.5 µg/mL
  MIC90: 4 µg/mL
Clostridium spiroforme
  MIC: 0.25 µg/mL
  MIC50: 0.25 µg/mL
  MIC90: 1 µg/mL
[13]
  MIC50: 4 µg/mL
  MIC90: 32 µg/mL
Desulfovibrio sp.
  MIC50: 4 µg/mL
  MIC90: 32 µg/mL
Bacteroides ovatus
  MIC50: 8 µg/mL
  MIC90: 32 µg/mL
Bifidobacterium bifidum
  MIC: 0.25 µg/mL
  MIC50: 0.25 µg/mL
  MIC90: 2 µg/mL
Peptoniphilus harei
  MIC: 0.25 µg/mL
  MIC50: 0.25 µg/mL
  MIC90: 2 µg/mL
Clostridium butyricum
  MIC: 0.25 µg/mL
  MIC50: 0.25 µg/mL
  MIC90: 1 µg/mL
Clostridium tertium
  MIC: 0.25 µg/mL
  MIC50: 0.25 µg/mL
  MIC90: 1 µg/mL
Cutibacterium acnes
  MIC: 0.25 µg/mL
  MIC50: 0.25 µg/mL
  MIC90: 2 µg/mL
Clostridium cadaveris
  MIC: 0.25 µg/mL
  MIC50: 0.25 µg/mL
  MIC90: 1 µg/mL
[14]
  MIC: 0.25 µg/mL
  MIC50: 0.25 µg/mL
  MIC90: 2 µg/mL
Eubacterium saburreum
  MIC: 0.25 µg/mL
  MIC50: 0.25 µg/mL
  MIC90: 2 µg/mL
Eubacterium biforme
  MIC: 0.25 µg/mL
  MIC50: 0.25 µg/mL
  MIC90: 2 µg/mL
